Assay results reported in patent publication US20220362329A1, “TREATING ACUTE LIVER DISEASE WITH TLR-MIK INIHIBITORS” (Yeda Research and Development Co. Ltd., priority 2020, published 2022).

Columns and labels:
Ly6C-positive monocytes = assay: Measurement of monocyte infiltration by FACS in ALF mouse models; type: in vivo, mice; settings: for monocyte infiltration: APAP-induced ALF model, inhibitor i.p. 1 hour after 500 mg/kg APAP
Procedure: (§1) Mouse models—8 weeks old C57BL6 male mice were injected intraperitoneally with 500 mg/kg body mass acetaminophen (APAP) in PBS or 300 mg/kg of thioacetamide (TAA) in PBS, 20 hours prior to sample collection. To avoid known circadian effects, all injections were performed between 1 pm and 2 pm. Control mice were injected with vehicle (PBS). For antibiotic treatment, mice were given a cocktail of ampicillin (1 g/l), kanamycin (1 g/l), vancomycin (0.5 g/l) and metronidazole (1 g/l) in drinking water for two weeks. MyD88 and Trif double knockout mice were 8 weeks old, males on C57BL6 background^55. All experimental procedures involving mice were approved by the local IACUC.
Measurement of monocyte infiltration—Livers harvested from mice were finely chopped with sterile scissors and digested with 4 ml of pre-warmed 0.4 mg/ml protease and 0.1 U/ml collagenase D (EBS buffer: 8 g/l NaCl, 0.4 g/l KCl, 88 mg/l NaH2PO4.H2O, 120 mg/l Na2HPO4.H2O, 2.38 g/l HEPES, 0.35 g/l NaHCO3, 0.42 g/l CaCl2) for 30 minutes at 37° C. while shaking Following, 10 ml of cold PBS was added and the suspension was filtered through a 100 μm mesh. To deplete hepatocytes, samples were centrifuged at 30 g for 5 minutes and the supernatant was transferred to new tubes. Cells were collected by centrifugation at 580 g. To lyse red blood cells, 1 ml of Gibco™ ACK Lysing Buffer was added and cells were incubated at room temperature for one minute. Subsequently, cold PBS was added and cells were collected by centrifugation at 580 g.
Receptors on the cells were first blocked with TruStain FcX anti-mouse CD16/32, then the cells were washed with FACS buffer (PBS without calcium and magnesium, 1% FCS), collected by centrifugation at 580 g and stained with CD45-PECy7 (Biolegend, 30F11, cat. 103114), F4/80-FITC (Serotec, Cl:A3-1, cat. G00018) and Ly6C-APC (Biolegend, HK14, cat. 128016) antibodies for 1 hour on ice. Finally, the cells were washed with FACS buffer, collected by centrifugation at 580 g, resuspended in FACS buffer, filtered through 40 μm mesh and measured on DB LSRFortessa. Data was analysed using FlowJo software.
(§2) MYC inhibition—MYC inhibitor KJ-Pyr-9 or vehicle control was injected intraperitoneally 2 hours following injection of APAP or PBS vehicle control. Briefly, 10 mg of KJ-Pyr-9 (Tocris, cat 5306) was dissolved in 1 ml of DMSO and then combined with Tween 80 and 5% dextrose 1:1:8 by volume. Mice were injected with 0.5 ml per 20 g, so the final dose of KJ-Pyr-9 was 25 mg per kilogram of body mass.
Inhibition of MAPK pathway proteins—The inhibitors listed in Table 1 hereinbelow were injected intraperitoneally 1 hour following injection of 500 mg/kg APAP or corresponding PBS vehicle. Briefly. The inhibitors were dissolved in 5% DMSO in PBS to a final injection volume of 400 μl for 20 g mouse. […]

ALF mouse models [1] = assay: Liver enzymes activity measurement (serum ALT and AST) in ALF mouse models; type: in vivo, mice; settings: for ALT activity in serum / AST activity in serum: APAP-induced ALF model, inhibitor i.p. 1 hour after 500 mg/kg APAP
Procedure: as §1
MYC inhibition—MYC inhibitor KJ-Pyr-9 or vehicle control was injected intraperitoneally 2 hours following injection of APAP or PBS vehicle control. […] Mice were injected with 0.5 ml per 20 g, so the final dose of KJ-Pyr-9 was 25 mg per kilogram of body mass.
(§3) Inhibition of MAPK pathway proteins—The inhibitors listed in Table 1 hereinbelow were injected intraperitoneally 1 hour following injection of 500 mg/kg APAP or corresponding PBS vehicle. Briefly. The inhibitors were dissolved in 5% DMSO in PBS to a final injection volume of 400 μl for 20 g mouse. Control mice were injected with 5% DMSO in PBS vehicle.

ALF mouse models [2] = assay: Histology score of H&E stained liver sections in ALF mouse models; type: in vivo, mice; settings: for liver damage, histopathological analysis: APAP-induced ALF model, inhibitor i.p. 1 hour after 500 mg/kg APAP
Procedure: as §1
Histology—Sample from the left lobe of the liver was fixed in 4% paraformaldehyde, embedded in paraffin, sectioned and stained with hematoxylin and eosin (H&E). Slides were scored by a blinded veterinary pathologist for necrosis and hemorrhage on a scale from 0 (healthy) to 5 (most severe).
as §2, §3

ALF mouse models [3] = assay: Survival of APAP-administered mice; type: in vivo; settings: n=15 per group
Procedure: as §1, §2

[4] = tested on: stellate, endothelial and Kupffer cells; assay: Single cell RNA sequencing of liver cells; type: in vivo, mice; settings: for number of differentially expressed genes: pseudobulk counts
Procedure: as §1
Following, liver was dissected, placed in cold EBS solution, shaken vigorously with forceps for separation of single cells, followed by filtration through a 100 μm mesh. Hepatocytes were depleted by centrifugation at 30 g for 5 minutes. Cells were then collected by centrifugation at 580 g and resuspended in cold PBS. To enrich for stellate cells, cells with retinoid fluorescence in the Pacific Blue channel were sorted using a BD FACSAria III. Following, stellate cells were mixed with unsorted cells, spun down, resuspended in PBS with 0.04% BSA and counted using Neubauer chamber.
10× library preparation and sequencing—Single cells were captured and processed using the 10× Genomics Chromium 3′ Single Cell RNA seq protocol according to the manufacturers' manual. Subsequently, RNA was sequenced using NextSeq® 500/550 High Output Kit v2 (Illumina cat no. 20024906).
as §2
Mapping: Single cell RNA sequencing data were demultiplexed, mapped to the GRCm38 mouse genome and UMIs were counted using the Cell Ranger Single-Cell Software Suite 2.1.1. Filtering and doublet removal: Cells with less than 100 detected transcripts and more than 10% mitochondrial reads were removed. Clustering analysis was used to identify populations of thrombocytes, erythrocytes, neutrophils and mast cells. Following, a second filtering was effected using 600 detected transcripts. […] The second step was necessary, as there were many low quality cells with low threshold. Following, doublets were identified by finding clusters of cells expressing gene expression patterns of two cell types at the same time. Marker sets used were Dcn, Colec11, Ecm1, Cxcl12, Sod3, Angptl6, Rgs5, Reln, Tmem56, Rbp1, G0s2, Rarres2, Acta2, Tagln for stellate cells; Gpihbp1, Aqp1, Clec4g, Dnase113, Fabp4, Ptprb, Kdr, Gpr182 for endothelial cells; Alb, Ttr, Ambp, Rbp4, Cyp2e1, Spp1 for hepatocytes; Cd3e, Cd3g, Cd3d, Lat, Thy1, Cxcr6, Nkg7, Cd4, Cd8b1, Klra4, Ncr1, Gzmb, Lck, Txk, Ms4a4b, Ccl5 for T cells; Cd79b, Cd79a, Ms4a1, Siglecg, Fcmr, Cd19, Fcer2a for B cells; Adgre1, Cd51, Clec4f, Timd4, Folr2, C1qa, C1qb, C1qc, Vsig4, Xcr1, Cd209a, Itgax, Siglech, Chil3, F13a1, S100a4, Lgals3, Gda, S100a9, Retnlg for macrophages, DCs and neutrophils; Alas2, Hbb-bt, Hbb-bs, Hba-a2, Hba-a1 for erythrocytes. Clustering—All cells from all 22 samples were first clustered using R package Seurat v2.3.4 FindClusters function^56. Genes that were present in less than 3 cells were removed and then highly variable genes were identified as having mean of non-zero values between 0.0125 and 3 and standard deviation higher than 0.5. Dimensionality reduction was effected with PCA and first 50 PCs were used for clustering.
As the liver population is very complex, it was decided to perform stepwise clustering. First, expression of Ecm1, Ptprc, Ptprb, Epcam, Msln and Alb in the obtained clusters was determined. […]

APAP-induced ALF = settings: intravenous; cited from earlier work
[5] = both ALF models (APAP, TAA), KJ-Pyr-9 25 mg/kg i.p.
[6] = steady state, endothelial cells

NC(=O)c1ccc(-c2cc(-c3ccc([N+](=O)[O-])cc3)nc(-c3ccco3)c2)cc1 [MYCi, KJ-Pyr-9]
infiltration of Ly6C-positive monocytes (F4/80 and Ly6C double-positive cells within the immune CD45-positive population) (Ly6C-positive monocytes; ALF mice (FIGS. 4C APAP, 19A TAA), KJ-Pyr-9 25 mg/kg i.p. 2 hours after APAP): dramatic reduction
Serum ALT activity (ALF mouse models [1]; [5]): attenuated
Serum AST activity (ALF mouse models [1]; [5]): attenuated
hepatic damage, tissue histology by H&E staining (ALF mouse models [2]; during ALF (FIGS. 4F-G APAP, 19C-D TAA), KJ-Pyr-9 25 mg/kg i.p.): reduced hepatic damage
mortality (ALF mouse models [3]): attenuated
expression of metallothionein 1 and 2 (Mt1 and Mt2) ([4]; ALF): remained unaffected
neutrophil infiltration ([4]; ALF): not affected
total gene expression level ([4]; ALF): lower total gene expression level
expression of neutrophil attractant chemokine Cxcl2 ([4]; ALF, Kupffer cells): did not get downregulated
expression of the 82 genes constituting the common activation signature ([4]; ALF, activated stellate, Kupffer and endothelial cell subsets): markedly attenuated
drop of median number of detected transcripts ([4]; ALF, stellate cells): ~4 times
upregulation of senescence and cell cycle arrest marker Cdkn1a (coding p21) ([4]; ALF, stellate cells): attenuated
median number of detected transcripts ([4]; ALF, stellate cells, 3500 without MYC inhibition): 945
activated populations (AAs, AAe, AAk) ([4]; during ALF induction): did not arise
Map3k8 expression (coding for TPL2) ([4]; during ALF, activated resident populations): strong induction
infiltration of Ly6C-positive monocytes to the liver (single cell transcriptomic data) ([4]; either APAP- or TAA-induced ALF): near-total reduction
effect on the gene expression landscape ([4]; in the absence of liver failure): did not feature a notable effect
differentially expressed genes ([4]; steady state, Kupffer cells): downregulation of genes related to antigen processing and presentation
number of differentially expressed genes ([4]; steady state, Kupffer cells): 94 genes
differentially expressed genes [4, 6]: downregulation of genes of the AP1 family
number of differentially expressed genes [4, 6]: 5 genes
gene ontology analysis of differentially expressed genes ([4]; steady state, stellate cells): downregulation of genes coding for ribosome proteins and other components of the translation machinery
number of differentially expressed genes ([4]; steady state, stellate cells): 148 genes

CC[C@@H]1[C@H](F)C(=O)N[C@@H]1COc1nccc2cc(C(N)=O)c(OC)cc12 [IRAK4 inhibitor, PF 06650833]
monocyte infiltration (Ly6C-positive monocytes): significant reduction
ALT activity in serum (ALF mouse models [1]): significantly reduced
AST activity in serum (ALF mouse models [1]): significantly reduced
liver damage, histopathological analysis (ALF mouse models [2]): significantly reduced liver damage

C[S+]([O-])c1ccc(-c2nc(-c3ccncc3)c(-c3ccc(F)cc3)[nH]2)cc1 (centres unmarked) [p38 inhibitor, SB203580]
monocyte infiltration (Ly6C-positive monocytes): significant reduction
ALT activity in serum (ALF mouse models [1]): significantly reduced
AST activity in serum (ALF mouse models [1]): significantly reduced
liver damage, histopathological analysis (ALF mouse models [2]): significantly reduced liver damage

COc1cc(O)c2c(c1)/C=C/C[C@H](O)[C@H](O)C(=O)/C=C\C[C@H](C)OC2=O [TAK1 inhibitor, 5Z-7-Oxozeaenol]
monocyte infiltration (Ly6C-positive monocytes): significant reduction
AST activity in serum (ALF mouse models [1]): significantly reduced
liver damage, histopathological analysis (ALF mouse models [2]): significantly reduced liver damage

CN1C(=O)C(Cc2c[nH]c3ccccc23)NC1=S (centres unmarked) [RIP1 inhibitor, Nec1]
ALT activity in serum (ALF mouse models [1]): significantly reduced
AST activity in serum (ALF mouse models [1]): significantly reduced

CC(=O)N[C@@H](CS)C(=O)O [N-acetylcysteine]
adverse effects including anaphylactic reaction (APAP-induced ALF): ≤ 15 % of the cases
effectiveness of the intervention (APAP-induced ALF): only very partially effective
